Reference: US20220187282A1, “CARDIOMYOCYTE PROLIFERATION” (The Council of the Queensland Institute of Medical Research, priority 2019, published 2022)

Tests used:
Format in all cases: cell-based, human
mature hCOs [1] = test: mature hCO, cardiomyocyte number, hCO size, bi-nucleation, cardiomyocyte size; settings: for cardiomyocyte number / bi-nucleation / hCO size (α-actinin area): 3 μM compound 3 or 1 μM compound 65; for bi-nucleation: 4 days; for hCO size (α-actinin area): 7 days
Experimental: (§1) For more detailed images an Olympus IX81 confocal microscope was used for mounted hCO imaging. For cell cycle analysis experiments 3 random fields of view were imaged and manually quantified for proliferation. These were added together to calculate the percentage of hPSC-CM proliferation in each hCO.
Cells were dissociated by washing in perfusion buffer at 37° C. (130 mM NaCl, 1 mM MgCl2, 5 mM KCl, 0.5 mM NaH2PO4, 10 mM HEPES, 10 mM Taurine, 10 mM glucose, 10 μM 2,3-butanedione monoxime, pH 7.4). hCO were then incubated in EDTA buffer at 37° C. for 5 min (130 mM NaCl, 5 mM KCl, 0.5 mM NaH2PO4, 10 mM HEPES, 10 mM Taurine, 10 mM glucose, 5 mM EDTA, 10 μM 2,3-butanedione monoxime, pH 7.4). hCO were washed in perfusion buffer and then incubated in perfusion buffer plus 1 mg/ml collagenase B (Roche) for 15 min at 37° C. on a shaker at 500 rpm. Equivolume 0.25% trypsin-EDTA (ThermoFisher) was then added and the hCOs were incubated for 10 min at 37° C. on a shaker at 500 rpm. Perfusion buffer with 5% FBS was then added and the single cells pelleted by centrifuging at 1000×g for 3 min. The cells were then resuspended in 1% para-formaldehyde and incubated for 5 min at room temperature. hCO were then centrifuged at 1000×g for 3 min, paraformaldehyde removed, suspended in PBS and counted using a haemocytometer.
Hits were next validated in mature hCOs using a targeted concentration range based on their active concentrations in the initial immature hCO screen (FIG. 3A). Proliferation markers were quantified using high magnification confocal imaging as we found flow cytometry to be inaccurate in hCO (data not shown). Compounds 3, 63 and 65 had no impact on contractile force (FIG. 3B) at concentrations of 3 μM, 0.3 μM and 1 μM, respectively. […] The effects of both compound 3 and compound 65 were reversible, with proliferation ceasing within 5 days of compound withdrawal (FIG. 8B). Therefore, compound 3 (FIG. 3G) and compound 65 (Goldberg et al., 2009) (FIG. 3H) are both capable of inducing bona fide cardiomyocyte proliferation in mature hCOs without adversely affecting contractile properties.

immature hCOs = test: immature hCO screen, Ki-67 intensity (proliferation); settings: for proliferation in immature hCO (Ki-67 intensity): 0.1, 1 and 10 μM, 2 days; for hCO Screen Max Effect (%): maximum over 0.1, 1, 10 uM
Experimental: Heart-dyno culture inserts were fabricated using standard SU-8 photolithography and PDMS molding practices (Mills et al., 2017a). CTRL medium: α-MEM GlutaMAX (ThermoFisher Scientific), 10% fetal bovine serum (FBS) (ThermoFisher Scientific), 200 μM L-ascorbic acid 2-phosphate sesquimagnesium salt hydrate (Sigma) and 1% Penicillin/Streptomycin (ThermoFisher Scientific). For each hCO, 5×10^4 cardiac cells in CTRL medium were mixed with collagen I to make a 3.5 μL final solution containing 2.6 mg/mL collagen I and 9% Matrigel. The bovine acid-solubilized collagen I (Devro) was first salt balanced and pH neutralized using 10×DMEM and 0.1 M NaOH, respectively, prior to mixing with Matrigel and cells. The mixture was prepared on ice and pipetted into the Heart-Dyno. The Heart-Dyno was then centrifuged at 100×g for 10 s to ensure the hCO form halfway up the posts. The mixture was then gelled at 37° C. for 60 min prior to the addition of CTRL medium to cover the tissues (150 μL/hCO). The Heart-Dyno design facilitates the self-formation of tissues around in-built PDMS exercise poles (designed to deform ˜0.07 μm/μN). The medium was changed every 2-3 days (150 μL/hCO).
hCOs were cultured in CTRL medium for formation for 5 days and then either kept in CTRL medium culture or changed to maturation medium (Mills et al., 2017a) comprising DMEM without glucose, glutamine and phenol red (ThermoFisher Scientific) supplemented with 4% […](without insulin) (ThermoFisher Scientific), 1% GlutaMAX (ThermoFisher Scientific), 200 μM L-ascorbic acid 2-phosphate sesquimagnesium salt hydrate and 1% Penicillin/Streptomycin (ThermoFisher Scientific), 1 mmol/L glucose and 100 μmon palmitic acid (conjugated to bovine serum albumin within B27 by incubating for 2h at 37° C., Sigma) with changes every 2-3 days.
(§2) Whole-Mount Immunostaining hCOs were fixed for 60 min with 1% paraformaldehyde (Sigma) at room temperature and washed 3× with PBS, after which they were incubated with primary antibodies (see Star Methods Table) in Blocking Buffer, 5% FBS and 0.2% Triton-X-100 (Sigma) in PBS overnight at 4° C. Cells were then washed in Blocking Buffer 2× for 2 h and subsequently incubated with secondary antibodies (see Star Methods Table) and Hoechst33342 (1:1000) overnight at 4° C. They were washed in Blocking Buffer 2× for 2 h and imaged in situ or mounted on microscope slides using Fluoromount-G (Southern Biotech).
For screening hCOs were imaged using a Leica DMi8 high content imaging microscope for in situ imaging. Custom batch processing files were written in Matlab R2013a (Mathworks) to remove the background, calculate the image intensity, and export the batch data to an Excel (Microsoft) spreadsheet.
The compound library included 5,000 biologically annotated pre-clinical, clinical, and tool compounds. They were selected based on a combination of criteria including balancing the number of external/internal compounds, diversity of annotated targets to cover greater than 1500 biological targets, and known targets associated with cell proliferation. […] Both negative vehicle (DMSO) and positive (CHIR99021) controls were included on each plate in each experiment (FIG. 2B,C).

mature hCOs [2] = test: mature hCO, mitosis (pH3) of cardiomyocytes; settings: 2 days, optimal concentrations
Experimental: as §2, §1
Hits were next validated in mature hCOs using a targeted concentration range based on their active concentrations in the initial immature hCO screen (FIG. 3A). Proliferation markers were quantified using high magnification confocal imaging as we found flow cytometry to be inaccurate in hCO (data not shown). Compounds 3, 63 and 65 had no impact on contractile force (FIG. 3B) at concentrations of 3 μM, 0.3 μM and 1 μM, respectively. […]

[3] = system: NAP1L1 Cys-388, NAP1L4 Cys-383; test: quantifying prenylated (farnesylated) proteins in hCO proteomics
Experimental: Targeted data extraction to quantify prenylated peptides was performed manually in the Skyline Environment (MacLean et al., 2010) on Andremoda/MaxQuant search results which included the variable modification of farnesylation (cysteine; C15H24; 204.1878) and geranylation (cysteine; […]; 272.2504) with neutral loss. Only peptides with an Andromeda score >100 and a localization probability >0.75% were included in the analysis.
Given that several metabolites of the mevalonate pathway are required for post-translational modifications such as prenylation, we next performed targeted data extraction of our proteomic analysis (Gillet et al., 2012) for the addition of geranylgeranyl or farnesyl groups. We identified key targets of farnesylation, including NAP1L1 at Cys-388, which was also shown to be farnesylated in a prior study (Kho et al., 2004), and NAP1L4 at Cys-383, which we have identified as a novel farnesylated protein (FIG. 15C).

Row | SMILES | cardiomyocyte size with 10 μM simvastatin (mature hCOs [1]; 3 μM compound 3, 2 days) | cardiomyocyte number (mature hCOs [1]) | cardiomyocyte size (mature hCOs [1]; 3 μM, 2 days) | bi-nucleation (mature hCOs [1]) | hCO size (α-actinin area) (mature hCOs [1]) | cardiomyocyte size (mature hCOs [1]; compound 3 or compound 65) | hCO Screen 0.1 uM Prolif Activation Ki-67 (%) (immature hCOs) | hCO Screen 1 uM Prolif Activation Ki-67 (%) (immature hCOs) | hCO Screen 10 uM Prolif Activation Ki-67 (%) (immature hCOs) | proliferation in immature hCO (Ki-67 intensity) (immature hCOs) | hCO Screen Max Effect (%) (immature hCOs) | cell cycle progression and mitosis of cardiomyocytes (pH3+) (mature hCOs [2]) | farnesylation of NAP1L1 at Cys-388 [3] | farnesylation of NAP1L4 at Cys-383 [3] | cardiomyocyte size, combined with 10 μM simvastatin (mature hCOs [1]; 1 μM, 2 days)
1 | Cc1ccc(NC(=O)c2ccnc(N3CCOCC3)c2)cc1Nc1ccnc(N2CC(C)OC(C)C2)n1 (stereo not drawn) [compound 3] | without significant changes | increase | decreases | without an increase | increase | without an increase | 299 | 23 | 111 | induced proliferation | 299 | promoted cell cycle progression and mitosis | increased | only increased farnesylation of NAP1L1 | –
2 | Cc1cc(Oc2ccnc(Nc3ccc(S(N)(=O)=O)cc3)c2)c(-c2ccccn2)nc1C [compound 65] | – | increase | – | without an increase | increase | without an increase | −38 | 96 | 121 | induced proliferation | 121 | promoted cell cycle progression and mitosis | increased | increased | increased
